Results as given in patent publication US6083977A, “Trienoic retinoid compounds and methods” (Ligand Pharmaceuticals Incorporated, priority 1995, dated 2000).
Values belong to the compound of their own block, whether it stands above or below them.

What was measured:
RXR = assay: Co-transfection assay, RXR subfamily; assay type: cell-based
Method: (§1) Utilizing the "cis-trans" or "co-transfection" assay described by Evans et al., Science, 240:889-95 (May 13, 1988), the disclosure of which is herein incorporated by reference, the retinoid compounds of the present invention were tested and found to have strong, specific activity as either selective RAR agonists, selective RXR agonists, or as pan-agonist activators of both RAR and RXR receptors. This assay is described in further detail in U.S. Pat. Nos. 4,981,784 and 5,071,773, the disclosures of which are incorporated herein by reference.
The co-transfection assay provides a method for identifying functional agonists which mimic, or antagonists which inhibit, the effect of native hormones, and quantifying their activity for responsive IR proteins. In this regard, the co-transfection assay mimics an in vivo system in the laboratory. Importantly, activity in the co-transfection assay correlates very well with known in vivo activity, such that the co-transfection assay functions as a qualitative and quantitative predictor of a tested compounds in vivo pharmacology. See, e.g., T. Berger et al. 41 J. Steroid Biochem. Molec. […]
The co-transfection assay can detect small molecule agonists or antagonists of target IRs. […] This activity can be conveniently measured, e.g., by increasing luciferase production, which reflects compound-dependent, IR-mediated increases in reporter transcription. […]

RXRα = molecular target: T1, RXRα (Homo sapiens, UniProt P19793); assay: Co-transfection assay (CV-1 cells), RXRα agonist activity; assay type: cell-based; details: read-out: RXRα Pot (potency, EC50)
T1 construct: expressed in transfected cells; host or cells: CV-1 (African green monkey kidney fibroblasts)
T1 sequence (P19793 1-462): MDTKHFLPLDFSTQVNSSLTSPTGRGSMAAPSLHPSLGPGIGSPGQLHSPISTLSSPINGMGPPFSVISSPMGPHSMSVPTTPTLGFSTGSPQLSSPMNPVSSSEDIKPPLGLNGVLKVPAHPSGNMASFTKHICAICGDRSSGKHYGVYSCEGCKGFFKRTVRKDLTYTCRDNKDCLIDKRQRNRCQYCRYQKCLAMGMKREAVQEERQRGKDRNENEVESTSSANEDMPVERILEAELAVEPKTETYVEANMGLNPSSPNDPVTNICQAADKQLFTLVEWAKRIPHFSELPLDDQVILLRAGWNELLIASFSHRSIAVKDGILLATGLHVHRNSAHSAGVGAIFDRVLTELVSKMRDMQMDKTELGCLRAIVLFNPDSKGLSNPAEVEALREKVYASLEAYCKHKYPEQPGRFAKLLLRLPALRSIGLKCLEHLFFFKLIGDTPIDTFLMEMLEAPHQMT

RXRγ = molecular target: T2, RXRγ (Mus musculus, UniProt P28705); assay: Co-transfection assay (CV-1 cells), RXRγ agonist activity; assay type: cell-based; details: read-out: RXRγ Pot (potency, EC50)
T2 construct: expressed in transfected cells; host or cells: CV-1 (African green monkey kidney fibroblasts)
T2 sequence (P28705 1-463): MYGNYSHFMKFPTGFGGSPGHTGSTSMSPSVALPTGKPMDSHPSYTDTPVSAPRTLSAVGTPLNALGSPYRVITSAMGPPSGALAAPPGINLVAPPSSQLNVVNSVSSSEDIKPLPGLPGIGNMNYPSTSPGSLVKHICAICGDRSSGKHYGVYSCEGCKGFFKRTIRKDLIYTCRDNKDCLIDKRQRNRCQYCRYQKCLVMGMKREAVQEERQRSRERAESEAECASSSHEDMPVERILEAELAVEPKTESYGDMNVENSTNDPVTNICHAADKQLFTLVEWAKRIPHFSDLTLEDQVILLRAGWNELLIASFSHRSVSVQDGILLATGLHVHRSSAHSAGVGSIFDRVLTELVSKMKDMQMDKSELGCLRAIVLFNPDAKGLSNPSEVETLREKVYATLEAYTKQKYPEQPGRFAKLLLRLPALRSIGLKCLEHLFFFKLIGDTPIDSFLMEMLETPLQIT

RARα = molecular target: T3, RARα (Homo sapiens, UniProt P10276); assay: Co-transfection assay (CV-1 cells), RARα agonist activity; assay type: cell-based; details: read-out: RARα Pot (potency, EC50)
T3 construct: expressed in transfected cells; host or cells: CV-1 (African green monkey kidney fibroblasts)
T3 sequence (P10276 1-462): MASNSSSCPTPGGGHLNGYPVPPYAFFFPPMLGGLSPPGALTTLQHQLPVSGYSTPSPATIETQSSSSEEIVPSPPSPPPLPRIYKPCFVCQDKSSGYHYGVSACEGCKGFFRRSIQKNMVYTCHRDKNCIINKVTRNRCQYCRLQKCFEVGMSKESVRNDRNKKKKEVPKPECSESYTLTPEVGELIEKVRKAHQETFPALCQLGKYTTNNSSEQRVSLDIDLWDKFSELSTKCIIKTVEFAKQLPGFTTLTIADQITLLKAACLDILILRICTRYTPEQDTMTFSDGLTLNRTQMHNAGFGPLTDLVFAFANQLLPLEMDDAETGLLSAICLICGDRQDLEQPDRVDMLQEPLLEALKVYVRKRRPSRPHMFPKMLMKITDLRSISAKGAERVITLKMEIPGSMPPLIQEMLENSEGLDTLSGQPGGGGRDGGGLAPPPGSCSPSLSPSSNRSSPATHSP

RARγ = molecular target: T4, RARγ (Homo sapiens, UniProt P13631); assay: Co-transfection assay (CV-1 cells), RARγ agonist activity; assay type: cell-based
T4 construct: expressed in transfected cells; host or cells: CV-1 (African green monkey kidney fibroblasts)
T4 sequence (P13631 1-454): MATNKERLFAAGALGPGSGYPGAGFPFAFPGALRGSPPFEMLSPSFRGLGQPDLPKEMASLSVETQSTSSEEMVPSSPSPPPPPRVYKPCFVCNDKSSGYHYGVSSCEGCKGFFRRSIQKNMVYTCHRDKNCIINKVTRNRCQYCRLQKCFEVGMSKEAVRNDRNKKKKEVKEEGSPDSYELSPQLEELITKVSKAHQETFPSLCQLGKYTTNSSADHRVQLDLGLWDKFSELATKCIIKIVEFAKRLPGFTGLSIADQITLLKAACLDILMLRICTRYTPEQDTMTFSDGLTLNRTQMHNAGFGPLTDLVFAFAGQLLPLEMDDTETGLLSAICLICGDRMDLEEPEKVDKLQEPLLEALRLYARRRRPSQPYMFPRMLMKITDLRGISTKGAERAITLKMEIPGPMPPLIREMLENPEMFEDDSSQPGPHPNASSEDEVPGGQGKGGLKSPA

RXRβ = molecular target: T5, RXRβ (Mus musculus, UniProt P28704); assay: Co-transfection assay (CV-1 cells), RXRβ agonist activity; assay type: cell-based; details: read-out: RXRβ Pot (potency, EC50)
T5 construct: expressed in transfected cells; host or cells: CV-1 (African green monkey kidney fibroblasts)
T5 sequence (P28704 1-520): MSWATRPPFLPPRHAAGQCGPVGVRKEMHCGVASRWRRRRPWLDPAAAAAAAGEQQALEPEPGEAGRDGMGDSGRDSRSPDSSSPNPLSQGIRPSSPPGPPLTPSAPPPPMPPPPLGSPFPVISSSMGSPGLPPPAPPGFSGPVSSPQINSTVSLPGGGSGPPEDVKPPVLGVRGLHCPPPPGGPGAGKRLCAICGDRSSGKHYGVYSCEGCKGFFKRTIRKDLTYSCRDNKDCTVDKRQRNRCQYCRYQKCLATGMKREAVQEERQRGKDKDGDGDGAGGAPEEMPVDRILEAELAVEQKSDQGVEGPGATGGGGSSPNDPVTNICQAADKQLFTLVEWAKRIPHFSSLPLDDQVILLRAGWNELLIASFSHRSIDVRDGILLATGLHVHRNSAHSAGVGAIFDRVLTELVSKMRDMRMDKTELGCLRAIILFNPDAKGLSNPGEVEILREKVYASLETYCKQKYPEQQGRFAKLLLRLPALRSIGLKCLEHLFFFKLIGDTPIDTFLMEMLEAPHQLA

RARβ = molecular target: T6, RARβ (Homo sapiens, UniProt P10826); assay: Co-transfection assay (CV-1 cells), RARβ agonist activity; assay type: cell-based; details: read-out: RARβ Pot (potency, EC50)
T6 construct: expressed in transfected cells; host or cells: CV-1 (African green monkey kidney fibroblasts)
T6 sequence (P10826 1-448 isoform P10826-2): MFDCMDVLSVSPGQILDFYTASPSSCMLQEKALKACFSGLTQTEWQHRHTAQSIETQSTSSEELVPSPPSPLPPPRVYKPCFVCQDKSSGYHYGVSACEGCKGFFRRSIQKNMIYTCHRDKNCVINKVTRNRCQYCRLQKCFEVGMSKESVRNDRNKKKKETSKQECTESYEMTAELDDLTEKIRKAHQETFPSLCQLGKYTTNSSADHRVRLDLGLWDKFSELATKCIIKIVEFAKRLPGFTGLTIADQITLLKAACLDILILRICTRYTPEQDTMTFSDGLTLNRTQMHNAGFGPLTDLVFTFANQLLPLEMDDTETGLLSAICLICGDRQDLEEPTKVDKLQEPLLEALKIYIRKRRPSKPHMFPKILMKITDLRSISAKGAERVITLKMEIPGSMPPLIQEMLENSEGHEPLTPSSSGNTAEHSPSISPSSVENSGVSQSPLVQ

RAR and RXR receptors = assay: Binding to the RAR and RXR receptors; details: relative to ATRA (RAR) and 9-cis (RXR)
AML-193 = assay: Incorporation of 3H-thymidine, AML-193; details: 96 h, read-out: TdR IC50 (50% inhibition of maximally observed thymidine incorporation)
RARs = assay: Co-transfection assay, RAR subfamily; assay type: cell-based, human
Method: as §1
The co-transfection assay provides a method for identifying functional agonists which mimic, or antagonists which inhibit, the effect of native hormones, and quantifying their activity for responsive IR proteins. In this regard, the co-transfection assay mimics an in vivo system in the laboratory. Importantly, activity in the co-transfection assay correlates very well with known in vivo activity, such that the co-transfection assay functions as a qualitative and quantitative predictor of a tested compounds in vivo pharmacology. See, e.g., T. Berger et al. 41 J. Steroid Biochem. Molec. Biol. 773 (1992), the disclosure of which is herein incorporated by reference.
In the co-transfection assay, a cloned cDNA for an IR (e.g., human RARα, RARβ, RXRγ) under the control of a constitutive promoter (e.g., the SV 40 promoter) is introduced by transfection (a procedure to induce cells to take up foreign genes) into a background cell substantially devoid of endogenous IRs. This introduced gene directs the recipient cells to make the IR protein of interest. A second gene is also introduced (co-transfected) into the same cells in conjunction with the IR gene. This second gene, comprising the cDNA for a reporter protein, such as firefly luciferase (LUC), is controlled by an appropriate hormone responsive promoter containing a hormone response element (HRE). This reporter plasmid functions as a reporter for the transcription-modulating activity of the target IR. Thus, the reporter acts as a surrogate for the products (mRNA then protein) normally expressed by a gene under control of the target receptor and its native hormone.
The co-transfection assay can detect small molecule agonists or antagonists of target IRs. Exposing the transfected cells to an agonist ligand compound increases reporter activity in the transfected cells. This activity can be conveniently measured, e.g., by increasing luciferase production, which reflects compound-dependent, IR-mediated increases in reporter transcription. […] . Increasing concentrations of a suspected antagonist will decrease the reporter signal (e.g., luciferase production). The co-transfection assay is therefore useful to detect both agonists and antagonists of specific IRs. Furthermore, it determines not only whether a compound interacts with a particular IR, but whether this interaction mimics (agonizes) or blocks (antagonizes) the effects of the native regulatory molecules on target gene expression, as well as the specificity and strength of this interaction. […]

SMILES: CCC/C(=C/C=C/C(C)=C/C(=O)O)c1cc(C(C)(C)C)cc(C(C)(C)C)c1 [Compound 28, (2E. 4E 6Z)-7-(3,5-Di-t-butylphenyl)-3-methyldeca-2,4,6-trienoic acid]
RXR activity (in words) (RXR): very potent and selective RXR active compound

EC50 (RXRα): 127 nM
EC50 (RXRγ): 56 nM
EC50 (RARα): 59 nM
EC50 (RARγ; co-transfection assay, CV-1 cells, read-out: RARγ Pot (potency, EC50)): 16 nM
EC50 (RXRβ): 48 nM
EC50 (RARβ): 23 nM
SMILES: CCCC(O)c1cc(C(C)(C)C)cc(C(C)(C)C)c1 (centres unmarked) [Compound 19, 1-(3,5-Di-t-butylphenyl)butan-1-ol]

binding compared to ATRA and 9-cis (in words) (RAR and RXR receptors): equal or superior binding
IC50 (AML-193): 0.1 nM
activity on RARγ (in words) (RARγ): sub-nanomolar activity
SMILES: CC(/C=C/C=C(\C)c1cc(C(C)(C)C)cc(C(C)(C)C)c1)=C\C(=O)O [Compound 9, (2E, 4E, 6E)-7-(3,5-Di-t-butylphenyl)-3-methylocta-2,4,6-trienoic acid]
RAR activity (in words) (RARs): extremely potent RAR active compounds
